Experimental data from patent US12171768B2, “IRAK4 degraders and uses thereof” (priority 2021, dated 2024).
“Also recorded” adds a separate entry of the source. Where two headings read alike, the source gives them in different places.

Assays:
[1] = Permeability; assay type: in vitro ADME
[2] = system: IRAK4; test: In vitro IRAK4 degradation in monkey PBMCs; assay type: cell-based
[3] = Red blood cell partitioning; assay type: in vitro ADME
[4] = system: cytochrome P450 (CYP); test: In vitro and in vivo metabolism studies; assay type: in vitro ADME
[5] = system: ex vivo proinflammatory cytokine induction by R848 and LPS in whole blood; test: Phase 1 MAD ex vivo proinflammatory cytokine induction by R848 and LPS in whole blood; design: species or system human; settings: Day 7-14, daily up to about 200 mg
From the text: In some embodiments, the cytokines include IFN-γ, IL-12, IL-1β, IL-10, IL-6, TNF-α, IL-8, IL-17, and IL-23.

[6] = target: T1, IRAK4 (Rattus norvegicus, UniProt A0A8I6G1H3); test: In vitro IRAK4 degradation in rat splenocytes; assay type: cell-based; settings: read-out: DC50, IRAK4 degradation
T1 construct: endogenous in cells; host or cells: rat splenocytes
T1 sequence (A0A8I6G1H3 1-461): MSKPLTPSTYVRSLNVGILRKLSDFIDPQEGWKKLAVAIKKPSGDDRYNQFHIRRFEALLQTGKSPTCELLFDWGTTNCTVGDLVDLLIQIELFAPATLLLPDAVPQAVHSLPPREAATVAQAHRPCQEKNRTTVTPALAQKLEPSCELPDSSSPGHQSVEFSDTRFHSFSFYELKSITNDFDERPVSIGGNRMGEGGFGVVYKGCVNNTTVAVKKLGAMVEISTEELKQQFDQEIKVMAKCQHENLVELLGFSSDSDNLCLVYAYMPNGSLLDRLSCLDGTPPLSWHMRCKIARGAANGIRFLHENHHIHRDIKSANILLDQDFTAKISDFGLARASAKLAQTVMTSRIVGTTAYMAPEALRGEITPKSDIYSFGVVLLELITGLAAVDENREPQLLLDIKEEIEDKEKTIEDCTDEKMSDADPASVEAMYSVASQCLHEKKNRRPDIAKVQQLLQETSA

[7] = target: P-glycoprotein (P-gp) (Homo sapiens, UniProt P08183); test: P-gp substrate identification in vitro; assay type: in vitro ADME
Chain of P-glycoprotein (P-gp) (P08183 whole entry): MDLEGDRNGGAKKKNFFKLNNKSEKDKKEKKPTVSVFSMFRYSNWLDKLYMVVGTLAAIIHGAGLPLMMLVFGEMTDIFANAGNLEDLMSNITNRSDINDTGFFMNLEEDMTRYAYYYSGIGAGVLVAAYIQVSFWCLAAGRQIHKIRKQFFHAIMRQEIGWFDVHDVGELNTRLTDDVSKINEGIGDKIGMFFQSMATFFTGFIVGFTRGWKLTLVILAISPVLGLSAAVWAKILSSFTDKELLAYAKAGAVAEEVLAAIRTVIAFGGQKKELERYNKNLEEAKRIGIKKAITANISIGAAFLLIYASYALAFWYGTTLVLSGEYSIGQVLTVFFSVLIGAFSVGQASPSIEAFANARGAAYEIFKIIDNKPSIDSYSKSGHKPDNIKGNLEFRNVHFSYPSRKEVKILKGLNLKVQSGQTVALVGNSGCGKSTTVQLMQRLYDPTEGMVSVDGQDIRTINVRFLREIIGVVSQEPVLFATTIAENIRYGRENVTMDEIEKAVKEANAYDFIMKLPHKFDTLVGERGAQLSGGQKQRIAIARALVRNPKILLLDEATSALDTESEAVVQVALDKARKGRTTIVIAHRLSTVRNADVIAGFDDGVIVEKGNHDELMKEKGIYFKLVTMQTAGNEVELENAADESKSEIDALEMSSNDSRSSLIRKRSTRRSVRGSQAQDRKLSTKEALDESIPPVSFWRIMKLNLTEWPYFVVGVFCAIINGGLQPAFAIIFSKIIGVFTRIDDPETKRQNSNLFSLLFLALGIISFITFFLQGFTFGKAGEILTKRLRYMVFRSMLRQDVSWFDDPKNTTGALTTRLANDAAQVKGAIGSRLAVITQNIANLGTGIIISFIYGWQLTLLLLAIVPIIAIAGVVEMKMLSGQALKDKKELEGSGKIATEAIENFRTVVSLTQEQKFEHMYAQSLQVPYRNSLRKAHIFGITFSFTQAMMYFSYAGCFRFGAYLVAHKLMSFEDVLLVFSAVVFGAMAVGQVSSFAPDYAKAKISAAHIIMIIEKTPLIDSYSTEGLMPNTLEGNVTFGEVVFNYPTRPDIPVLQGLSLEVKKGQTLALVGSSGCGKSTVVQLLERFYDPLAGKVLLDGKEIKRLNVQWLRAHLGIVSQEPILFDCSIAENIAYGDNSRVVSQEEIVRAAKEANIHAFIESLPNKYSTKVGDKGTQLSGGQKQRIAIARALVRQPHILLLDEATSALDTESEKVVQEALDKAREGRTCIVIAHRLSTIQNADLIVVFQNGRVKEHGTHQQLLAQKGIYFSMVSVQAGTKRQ

[8] = Plasma protein binding; assay type: in vitro ADME; settings: across nonclinical species and humans
[9] = Distribution studies in rats; assay type: in vivo
[10] = Solubility; assay type: physicochemical
[11] = Excretion study in bile duct-cannulated (BDC) rats; assay type: in vivo
[12] = target: T2, breast cancer resistance protein (BCRP) (Homo sapiens, UniProt Q9UNQ0); test: BCRP substrate and efflux inhibition in vitro; assay type: in vitro ADME
T2 sequence (Q9UNQ0 1-655): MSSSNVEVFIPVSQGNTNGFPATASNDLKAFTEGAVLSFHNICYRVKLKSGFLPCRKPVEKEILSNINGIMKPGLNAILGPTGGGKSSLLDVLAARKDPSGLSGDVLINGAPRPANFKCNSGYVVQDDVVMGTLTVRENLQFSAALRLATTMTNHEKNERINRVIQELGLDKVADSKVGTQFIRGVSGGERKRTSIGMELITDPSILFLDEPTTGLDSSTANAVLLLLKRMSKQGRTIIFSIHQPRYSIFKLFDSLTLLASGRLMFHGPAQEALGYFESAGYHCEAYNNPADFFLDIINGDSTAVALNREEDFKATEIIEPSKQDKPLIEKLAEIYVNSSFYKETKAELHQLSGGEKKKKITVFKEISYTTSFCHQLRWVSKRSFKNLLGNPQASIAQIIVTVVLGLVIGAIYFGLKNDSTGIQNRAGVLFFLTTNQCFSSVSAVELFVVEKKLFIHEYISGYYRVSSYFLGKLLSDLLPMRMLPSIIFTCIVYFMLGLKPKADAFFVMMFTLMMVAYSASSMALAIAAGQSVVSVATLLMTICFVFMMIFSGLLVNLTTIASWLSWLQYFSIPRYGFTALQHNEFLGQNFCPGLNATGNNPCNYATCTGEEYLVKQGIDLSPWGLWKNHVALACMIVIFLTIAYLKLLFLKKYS

[13] = system: R848- or LPS-mediated induction of pro-inflammatory cytokines in whole blood; test: Phase 1 SAD ex vivo proinflammatory cytokine induction by R848 and LPS in whole blood; design: species or system human; settings: for Mean maximum percent change from baseline, IFNγ / Mean maximum percent change from baseline, IL1β / Mean maximum percent change from baseline, IL6 / Mean maximum percent change from baseline, IL8 / Mean maximum percent change from baseline, IL10 / Mean maximum percent change from baseline, IL12 / Mean maximum percent change from baseline, IL17 / Mean maximum percent change from baseline, TNFα: Cohort 7
[14] = target: CYP3A4 (Homo sapiens, UniProt P08684); test: In vitro drug-drug interaction study, CYP3A4; assay type: in vitro ADME
Chain of CYP3A4 (P08684 whole entry): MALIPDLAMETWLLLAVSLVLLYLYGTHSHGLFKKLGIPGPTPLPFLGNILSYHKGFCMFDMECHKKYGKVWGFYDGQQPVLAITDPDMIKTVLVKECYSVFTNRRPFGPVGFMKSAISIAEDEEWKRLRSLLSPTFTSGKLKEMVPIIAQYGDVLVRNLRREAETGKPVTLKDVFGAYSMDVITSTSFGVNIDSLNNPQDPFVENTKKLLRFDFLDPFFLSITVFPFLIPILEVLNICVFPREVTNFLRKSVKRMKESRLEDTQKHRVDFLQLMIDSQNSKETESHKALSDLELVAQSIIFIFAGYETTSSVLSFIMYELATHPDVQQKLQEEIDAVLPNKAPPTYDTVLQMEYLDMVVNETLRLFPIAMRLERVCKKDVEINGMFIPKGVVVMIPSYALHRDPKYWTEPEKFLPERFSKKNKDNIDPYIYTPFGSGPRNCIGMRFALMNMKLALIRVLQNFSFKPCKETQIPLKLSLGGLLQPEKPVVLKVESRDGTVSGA

[15] = system: imiquimod psoriasis model; test: Imiquimod psoriasis model (TLR 7/8-dependent); assay type: in vivo, murine
[16] = system: MSU-crystal induced inflammation; test: Mouse air pouch model of MSU-crystal induced (TLR 2/4-dependent) inflammation; assay type: in vivo; settings: 3 days twice daily, 30 to 100 mg/kg
[17] = target: CYP2C19 (Homo sapiens, UniProt P33261); test: In vitro drug-drug interaction study, CYP2C19; assay type: in vitro ADME
Chain of CYP2C19 (P33261 whole entry): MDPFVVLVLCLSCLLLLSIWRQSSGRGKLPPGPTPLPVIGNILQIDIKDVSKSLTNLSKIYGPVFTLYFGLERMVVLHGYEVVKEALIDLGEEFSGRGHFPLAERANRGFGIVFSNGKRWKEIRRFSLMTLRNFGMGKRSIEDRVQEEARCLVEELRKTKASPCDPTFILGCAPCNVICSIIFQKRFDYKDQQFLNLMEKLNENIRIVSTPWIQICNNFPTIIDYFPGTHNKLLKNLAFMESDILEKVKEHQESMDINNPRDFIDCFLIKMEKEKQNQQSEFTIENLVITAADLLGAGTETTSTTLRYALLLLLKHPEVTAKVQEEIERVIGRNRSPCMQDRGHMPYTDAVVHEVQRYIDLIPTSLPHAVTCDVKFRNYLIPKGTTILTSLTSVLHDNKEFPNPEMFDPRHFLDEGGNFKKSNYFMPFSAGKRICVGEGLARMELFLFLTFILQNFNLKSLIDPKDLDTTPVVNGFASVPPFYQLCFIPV

[18] = Phase 1 MAD Compound A concentration in skin; assay type: in vivo; settings: human, oral, Day 14, once daily dosing, read-out: Ctrough (pre-dose) levels in skin relative to plasma
[19] = Phase 1 SAD safety and tolerability; assay type: in vivo, human
Procedure: The safety data up to 24-hours post-dose for these sentinel HVs will be reviewed by the Investigator to ensure acceptable tolerability before commencing administration of the investigational product to the remaining HVs in the cohort. Sequential dosing of HVs within a cohort will be staggered so that there will be at least a gap of 10 minutes between dosing of individual HVs. After the completion of each dose level, the blinded interim PK data through Day 5 and safety data through Day 14 will be reviewed by the SRC before proceeding to the next dose level. Each subsequent dose administration will be performed, if in the judgment of the Investigator and Safety Physician, the results of the safety analyses of the preceding dose administration are satisfactory.
All data will be fully listed.

[20] = blinded SAD safety, per Investigator assessment

Cn1c(=O)n([C@@H]2CCC(=O)NC2=O)c2cccc(C#CCOC3CCN(C[C@H]4CC[C@H](n5cc(NC(=O)c6cnn7ccc(N8C[C@H]9C[C@@H]8CO9)nc67)c(C(F)F)n5)CC4)CC3)c21 [Compound A, 5-((1R,4R)-2-oxa-5-azabicyclo[2.2.1]heptan-5-yl)-N-(3-(difluoromethyl)-1-((1r,4R)-4-((4-((3-(1-(2,6-dioxopiperidin-3-yl)-3-methyl-2-oxo-2,3-dihydro-1H-benzo[d]imidazol-4-yl)prop-2-yn-1-yl)oxy)piperidin-1-yl)methyl)cyclohexyl)-1H-pyrazol-4-yl)pyrazolo[1,5-a]pyrimidine-3-carboxamide]
Permeability [1]: moderate; also recorded: medium
Partitioning into red blood cells [3]: did not significantly partition into red blood cells
Primary metabolizing enzyme [4]: primarily metabolized by CYP3A4
Metabolic pathway ([4]; in vitro and in vivo): oxidative metabolism via cytochrome P450 (CYP)
Inhibition of IFN-γ in whole blood [5]: up to 85%
DC50 [6]: < 10 nM
P-gp substrate [7]: substrate
Plasma protein binding [8]: highly bound
Tissue distribution [9]: extensively distributed into tissues
BCS classification (tentative) [10]: BCS II
solubility [10]: low
solubility ([10]; FaSSIF, pH 6.5, fassif, read-out: Solubility in bio-relevant fluid FaSSIF): < 12000 µg/mL
solubility ([10]; aqueous media, aqueous buffer, across the physiological pH range, read-out: Aqueous solubility): ≤ 3000 µg/mL
Biliary and intestinal excretion as parent drug [11]: minor to moderate
Renal clearance [11]: negligible
BCRP efflux inhibition [12]: inhibited BCRP efflux
BCRP substrate [12]: substrate
Mean maximum ex vivo cytokine inhibition ([13]; 24-48 h post-dose, LPS or R848, whole blood): up to 97%
Mean maximum percent change from baseline, IFNγ ([13]; LPS, 24-48 hours): −42%^
Mean maximum percent change from baseline, IL1β ([13]; LPS, 24-48 hours): −68%^1
Mean maximum percent change from baseline, IL6 ([13]; LPS, 24-48 hours): −62%^1
Mean maximum percent change from baseline, IL8 ([13]; LPS, 24-48 hours): −81%^1
Mean maximum percent change from baseline, IL10 ([13]; LPS, 24-48 hours): −83%^1
Mean maximum percent change from baseline, IL12 ([13]; LPS, 24-48 hours): −35%^2
Mean maximum percent change from baseline, IL17 ([13]; LPS, 24-48 hours): −43%^2
Mean maximum percent change from baseline, TNFα ([13]; LPS, 24-48 hours): −42%^2
Mean maximum percent change from baseline, IFNγ ([13]; R848, 24-48 hours): −97%^2
Mean maximum percent change from baseline, IL1β ([13]; R848, 24-48 hours): −92%^1
Mean maximum percent change from baseline, IL6 ([13]; R848, 24-48 hours): −88%^1
Mean maximum percent change from baseline, IL8 ([13]; R848, 24-48 hours): −54%^
Mean maximum percent change from baseline, IL10 ([13]; R848, 24-48 hours): −89%^1
Mean maximum percent change from baseline, IL12 ([13]; R848, 24-48 hours): −93%^1
Mean maximum percent change from baseline, IL17 ([13]; R848, 24-48 hours): −79%^1
Mean maximum percent change from baseline, TNFα ([13]; R848, 24-48 hours): −88%^2
Inhibition of CYP3A4 [14]: potential time dependent inhibition
Degradation of IRAK4 in the spleen and skin ([15]; mouse, in vivo): dose-dependent degradation
Skin thickness ([15]; mouse, in vivo): reduction in skin thickness
IL-1β in the skin ([15]; p<0.0001): significant reduction
IL-6 in the skin ([15]; p<0.05, 300 mg/kg only): significant reduction
IRAK4 levels in the spleen [16]: significantly reduced
Inflammatory exudate, including neutrophils and IL-1β [16]: significantly reduced
Inhibition of CYP2C19 [17]: potential time dependent inhibition
Kp at 14 day [18]: ~10
ECG changes ([19]; SAD): No significant ECG changes
QTcF prolongation ([19]; SAD): no clinically significant QTcF prolongation
Serious adverse events ([19]; SAD): no serious adverse events; also recorded: No SAEs
AST elevation ([19]; SAD 5, n=1, resolution ~Day 21): 3.8 × ULN
ALT elevation ([19]; SAD 5, n=1, slow resolution to baseline): 2.5 × ULN
Study treatment related AEs, Abdominal pain, #AEs [19, 20]: 1
Study treatment related AEs, Diarrhea, #AEs [19, 20]: 2
Study treatment related AEs, Diarrhea, (subjects) [19, 20]: (2)
Study treatment related AEs, Headache, #AEs [19, 20]: 5
Study treatment related AEs, Headache, (subjects) [19, 20]: (4)
Study treatment related AEs, Muscle weakness, #AEs [19, 20]: 1
Study treatment related AEs, Myalgia, #AEs [19, 20]: 1
Study treatment related AEs, Nausea, #AEs [19, 20]: 3
Study treatment related AEs, Nausea, (subjects) [19, 20]: (3)
Study treatment related AEs, Palpitations, #AEs [19, 20]: 1
Study treatment related AEs, Vomiting, #AEs [19, 20]: 2
Study treatment related AEs, Vomiting, (subjects) [19, 20]: (1)
Safety and tolerability ([19]; single doses, SAD): safe and well-tolerated
